{
  "source": "ChEMBL document CHEMBL4017490",
  "about": "“Design, Synthesis, and Pharmacological Evaluation of Novel Multisubstituted Pyridin-3-amine Derivatives as Multitargeted Protein Kinase Inhibitors for the Treatment of Non-Small Cell Lung Cancer” (J Med Chem, 2017)",
  "key": {"[1]": {"test": "Half life in CD-1 mouse at 5 mg/kg, iv by LC-MS/MS method", "format": "ADME, organism-based", "settings": "in vivo"}, "[2]": {"molecular_target": "Discoidin domain-containing receptor 2 (Homo sapiens, UniProt Q16832)", "sequence (Q16832 whole entry, the tested form may be a part)": "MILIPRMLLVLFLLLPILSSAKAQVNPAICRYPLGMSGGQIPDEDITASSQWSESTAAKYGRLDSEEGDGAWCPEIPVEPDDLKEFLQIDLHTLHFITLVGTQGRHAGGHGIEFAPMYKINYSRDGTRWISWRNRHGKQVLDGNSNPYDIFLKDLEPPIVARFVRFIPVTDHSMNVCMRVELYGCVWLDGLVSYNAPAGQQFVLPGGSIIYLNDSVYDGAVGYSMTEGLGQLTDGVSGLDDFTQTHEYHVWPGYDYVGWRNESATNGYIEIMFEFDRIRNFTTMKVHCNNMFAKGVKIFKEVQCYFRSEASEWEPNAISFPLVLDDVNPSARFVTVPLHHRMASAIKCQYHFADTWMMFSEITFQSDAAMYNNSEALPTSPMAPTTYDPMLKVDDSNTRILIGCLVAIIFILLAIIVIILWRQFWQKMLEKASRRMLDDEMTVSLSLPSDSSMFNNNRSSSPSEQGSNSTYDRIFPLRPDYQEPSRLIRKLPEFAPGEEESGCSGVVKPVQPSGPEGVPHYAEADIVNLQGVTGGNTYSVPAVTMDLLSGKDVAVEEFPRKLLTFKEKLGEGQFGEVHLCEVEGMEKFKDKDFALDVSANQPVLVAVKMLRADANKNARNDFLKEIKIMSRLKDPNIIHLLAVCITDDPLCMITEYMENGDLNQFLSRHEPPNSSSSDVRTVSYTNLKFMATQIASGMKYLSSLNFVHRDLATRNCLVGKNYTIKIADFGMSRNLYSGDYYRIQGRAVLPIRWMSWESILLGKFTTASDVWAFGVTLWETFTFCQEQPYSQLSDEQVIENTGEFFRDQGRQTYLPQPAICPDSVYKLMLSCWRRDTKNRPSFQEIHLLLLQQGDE", "test": "Inhibition of recombinant DDR2 (unknown origin) using poly (Glu,Tyr) 4:1 as substrate after 60 mins by ELISA"}, "[3]": {"test": "Tmax in Sprague-Dawley rat at 20 mg/kg, po by LC-MS/MS method", "format": "ADME, organism-based", "settings": "in vivo"}, "[4]": {"test": "Tmax in CD-1 mouse at 20 mg/kg, po by LC-MS/MS method", "format": "ADME, organism-based", "settings": "in vivo"}, "[5]": {"test": "Tmax in CD-1 mouse at 5 mg/kg, iv by LC-MS/MS method", "format": "ADME, organism-based", "settings": "in vivo"}, "[6]": {"test": "Cmax in Sprague-Dawley rat at 20 mg/kg, po by LC-MS/MS method", "format": "ADME, organism-based", "set-up": "dose 20 mg/kg, route oral", "settings": "in vivo"}, "[7]": {"test": "Cmax in CD-1 mouse at 20 mg/kg, po by LC-MS/MS method", "format": "ADME, organism-based", "set-up": "dose 20 mg/kg, route oral", "settings": "in vivo"}, "[8]": {"test": "AUC (0 to t) in Sprague-Dawley rat at 20 mg/kg, po by LC-MS/MS method", "format": "ADME, organism-based", "settings": "in vivo"}, "[9]": {"test": "AUC (0 to t) in CD-1 mouse at 5 mg/kg, iv by LC-MS/MS method", "format": "ADME, organism-based", "settings": "in vivo"}, "[10]": {"test": "MRT in CD-1 mouse at 20 mg/kg, po by LC-MS/MS method", "format": "ADME, organism-based", "settings": "in vivo"}, "[11]": {"test": "AUC (0 to infinity) in CD-1 mouse at 5 mg/kg, iv by LC-MS/MS method", "format": "ADME, organism-based", "set-up": "dose 5 mg/kg, time infinity, route intravenous", "settings": "in vivo"}, "[12]": {"test": "MRT in Sprague-Dawley rat at 10 mg/kg, iv by LC-MS/MS method", "format": "ADME, organism-based", "settings": "in vivo"}, "[13]": {"test": "Half life in CD-1 mouse at 20 mg/kg, po by LC-MS/MS method", "format": "ADME, organism-based", "settings": "in vivo"}, "[14]": {"test": "Oral bioavailability in Sprague-Dawley rat at 20 mg/kg by LC-MS/MS method", "format": "ADME, organism-based", "settings": "in vivo"}, "[15]": {"test": "Apparent clearance in Sprague-Dawley rat at 10 mg/kg, iv by LC-MS/MS method", "format": "ADME, organism-based", "settings": "in vivo, read-out: CL(app) (converted)"}, "NCI-H1581": {"tested_on": "NCI-H1581", "test": "Antitumor activity against human NCI-H1581 cells xenografted in nude mouse assessed as tumor growth inhibition at 5 mg/kg, po qd administered for 14 days measured twice per week during compound dosing", "format": "functional", "settings": "336 h, read-out: TGI"}, "[16]": {"test": "Protein binding in plasma (unknown origin)", "format": "ADME, cell-free", "settings": "read-out: PPB (converted)"}, "[17]": {"test": "Inhibition of FGFR3 mutant in human UM-UC-14 cells assessed as inhibition of cell proliferation after 72 hrs by cell counting kit-8 assay", "format": "cell-based", "settings": "UMUC14, 72 h"}, "Mus musculus [18]": {"tested_on": "Mus musculus", "test": "Toxicity in nude mouse xenografted with human NCI-H1581 cells assessed as diarrhea at 20 mg/kg, po qd administered for 14 days", "format": "organism-based", "settings": "in vivo, 336 h"}, "Mus musculus [19]": {"tested_on": "Mus musculus", "test": "Unbound Cmax in CD-1 mouse at 5 mg/kg, iv by LC-MS/MS method", "format": "ADME, organism-based", "settings": "in vivo"}, "Mus musculus [20]": {"tested_on": "Mus musculus", "test": "Unbound Cmax in CD-1 mouse at 20 mg/kg, po by LC-MS/MS method", "format": "ADME, organism-based", "settings": "in vivo"}, "Mus musculus [21]": {"tested_on": "Mus musculus", "test": "Toxicity in nude mouse xenografted with human NCI-H1581 cells assessed as body weight loss at 20 mg/kg, po qd administered for 14 days", "format": "organism-based", "settings": "in vivo, 336 h"}},
  "data": [
    {"smiles": "Cc1n[nH]c2ccc(-c3cc(N[C@@H](CO)c4ccccc4)cnc3-c3cc(F)ccc3O)cc12", "values": [
      {"measurement": "half-life", "setting": "[1]", "value": 2.5, "unit": "h"},
      {"measurement": "IC50", "setting": "[2]", "value": 0.8, "unit": "nM"},
      {"measurement": "Tmax", "setting": "[3]", "value": 1, "unit": "h"},
      {"measurement": "Tmax", "setting": "[4]", "value": 0.42, "unit": "h"},
      {"measurement": "Tmax", "setting": "[5]", "value": 1.5, "unit": "h"},
      {"measurement": "Cmax", "setting": "[6]", "value": 2080, "unit": "ng/mL"},
      {"measurement": "Cmax", "setting": "[7]", "value": 961, "unit": "ng/mL"},
      {"measurement": "AUC(0-t)", "setting": "[8]", "value": 16600, "unit": "ng·h/mL"},
      {"measurement": "AUC(0-t)", "setting": "[9]", "value": 289, "unit": "ng·h/mL"},
      {"measurement": "MRT", "setting": "[10]", "value": 3.59, "unit": "h"},
      {"measurement": "AUC(0-inf)", "setting": "[11]", "value": 290, "unit": "ng·h/mL"},
      {"measurement": "MRT", "setting": "[12]", "value": 3.41, "unit": "h"},
      {"measurement": "half-life", "setting": "[13]", "value": 2.72, "unit": "h"},
      {"measurement": "bioavailability", "setting": "[14]", "value": 60, "unit": "%"},
      {"measurement": "clearance", "setting": "[15]", "value": 12.1, "unit": "mL/min/kg"},
      {"measurement": "inhibition in vivo at 5 mg/kg", "setting": "NCI-H1581", "value": 37.8, "unit": "%"},
      {"measurement": "fraction unbound", "setting": "[16]", "value": 0.0044},
      {"measurement": "IC50", "setting": "[17]", "value": 128, "unit": "nM"},
      {"measurement": "Activity", "setting": "Mus musculus [18]", "value": "Toxic"},
      {"measurement": "fCmax", "setting": "Mus musculus [19]", "value": 1.1, "unit": "nM"},
      {"measurement": "fCmax", "setting": "Mus musculus [20]", "value": 10.2, "unit": "nM"},
      {"measurement": "Activity", "setting": "Mus musculus [21]", "value": "Toxic"}
    ]}
  ]
}
